Source: patent US20120301895A1, “METHODS OF MODULATING BINDING OF SON OF SEVENLESS TO PHOSPHATIDIC ACID AND IDENTIFYING COMPOUNDS THAT MODULATE SUCH BINDING” (THE RESEARCH FOUNDATION OF STATE UNIVERSITY OF NEW YORK, priority 2007, published 2012)

Test system: PLD activity in MDA-MB-231 cells
Assay: In vivo PLD activity (transphosphatidylation, PBt) in MDA-MB-231 cells
Type: cell-based, human
Conditions: honokiol 20 μM, 4 hr
Description: In FIG. 13A, MDA-MB-231 cells were plated as in FIGS. 12A-C and then shifted to either 10% serum or 0.5% serum overnight as indicated. Honokiol (20 μM) or control ethanol was then added for 4 hr as indicated, at which time the cells were harvested and the levels of PBt were determined as in FIGS. 12A-C. The experiment shown is representative of at least three independent experiments. In FIG. 13B, the effect of honokiol on the activity of PLD isoforms was measured using exogenous substrate assay as described previously (Henage et al., “Kinetic Analysis of a Mammalian Phospholipase D: Allosteric Modulation by Monomeric GTPases, Protein Kinase C, and Polyphosphoinositides,” J. Biol. Chem. 281:3408-17 (2006), which is hereby incorporated by reference in its entirety). […] The amount of background was determined and subtracted using a bovine serum albumin standard. […]
For in vivo PLD activity, cells were plated in 60 mm culture dishes in DMEM with 10% serum at a density that would allow them to grow to about 80% confluence after 2 days, then cells were shifted to DMEM containing 0.5% or 10% serum as indicated in the figure legends overnight. […] Briefly, PLD activity was measured by the release of [methyl-^3H] choline from [choline-methyl-^3H]dipalmitoyl-phosphatidylcholine. […]

C=CCc1ccc(O)c(-c2ccc(O)c(CC=C)c2)c1 [honokiol, Honokiol]
PLD activity in cells in 0.5% serum (stress-induced) (0.5% serum): completely suppressed
basal PLD activity in cells maintained in 10% serum (10% serum): little effect
